Patent publication US20230085307A1, “PYRIDAZINONE COMPOUND AND HERBICIDE” (NISSAN CHEMICAL CORPORATION, priority 2019, published 2023)

What was measured:
[1] = test system: Japanese bulrush; experiment: Test Example 1: herbicidal activity, application before weed generation under submerged conditions (Table 16, symbol B); format: in vivo, Japanese bulrush (Schoenoplectus juncoides); settings: 320 g/ha applied herbicide
In short: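 Emulsion formulation, water-diluted to set dose, was put onto the flooded surface (4 cm depth, alluvial soil) the same day weeds were sown and 2.5-leaf rice transplanted. After 3 weeks at 25-30 °C under glass, each species was rated 0 (≤5% kill) to 5 (≥90% kill).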

[2] = test system: late watergrass; experiment: Test Example 2: herbicidal activity, application during weed generation under submerged conditions (Table 17, symbol A); format: in vivo, late watergrass (Echinochloa oryzicola); settings: AAH 320 g/ha; application during weed generation, submerged conditions
In short: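 3-wk visual-criteria score after one water-surface dose. Emulsion formulation, water-diluted to set rate; applied at 1–2 leaf stage; alluvial soil, 4 cm standing water; seeds co-sown; greenhouse 25–30° C.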

[3] = test system: barnyard grass; experiment: Test Example 3: herbicidal effect by foliage application, Wagner pot (Table 18, symbol H); format: in vivo, barnyard grass (Echinochloa crus-galli); settings: amount of applied herbicide 320 g/ha
In short: (§1)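 Plants were sown in alluvial soil held under 0.1–0.5 cm standing water and grown 14 days in a greenhouse at 25–30 °C. An emulsifiable formulation, water-diluted to the set dose, was then sprayed onto the foliage, and effects were scored three weeks later using previously defined criteria.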

[4] = test system: Chinese sprangletop; experiment: Test Example 3: herbicidal effect by foliage application, Wagner pot (Table 18, symbol D); format: in vivo, chinese sprangletop (Leptochloa chinensis); settings: amount of applied herbicide 320 g/ha
In short: as §1

[5] = test system: southern crabgrass; experiment: Test Example 4: herbicidal effect by soil treatment (Table 19, symbol F); format: in vivo, southern crabgrass (Digitaria ciliaris); settings: amount of applied herbicide 320 g/ha
In short: (§2)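 In this soil treatment, the formulated compound reached the seeds only through the soil: seeds were buried about 1.5 cm deep in sterilized diluvial soil, then the diluted emulsion was sprayed over the surface. After three weeks at 25° C. to 30° C. in a greenhouse, effects were graded on criteria from an earlier test.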

[6] = test system: green foxtail; experiment: Test Example 4: herbicidal effect by soil treatment (Table 19, symbol G); format: in vivo, green foxtail (Setaria viridis); settings: amount of applied herbicide 320 g/ha
In short: as §2

[7] = test system: barnyard grass; experiment: Test Example 4: herbicidal effect by soil treatment (Table 19, symbol H); format: in vivo, barnyard grass (Echinochloa crus-galli); settings: amount of applied herbicide 320 g/ha
In short: as §2

[8] = test system: blackgrass; experiment: Test Example 4: herbicidal effect by soil treatment (Table 19, symbol J); format: in vivo, blackgrass (Alopecurus myosuroides); settings: amount of applied herbicide 320 g/ha
In short: as §2

[9] = test system: velvetleaf; experiment: Test Example 4: herbicidal effect by soil treatment (Table 19, symbol M); format: in vivo, velvetleaf (Abutilon theophrasti); settings: amount of applied herbicide 320 g/ha
In short: as §2

[10] = test system: redroot pigweed; experiment: Test Example 4: herbicidal effect by soil treatment (Table 19, symbol N); format: in vivo, redroot pigweed (Amaranthus retroflexus); settings: amount of applied herbicide 320 g/ha
In short: as §2

[11] = test system: lambsquarters; experiment: Test Example 4: herbicidal effect by soil treatment (Table 19, symbol O); format: in vivo, lambsquarters (Chenopodium album); settings: amount of applied herbicide 320 g/ha
In short: as §2

[12] = test system: chickweed; experiment: Test Example 4: herbicidal effect by soil treatment (Table 19, symbol P); format: in vivo, common chickweed (Stellaria media); settings: amount of applied herbicide 320 g/ha
In short: as §2

[13] = test system: wild oat; experiment: Test Example 5: herbicidal effect by foliage application, plastic box (Table 20, symbol I); format: in vivo, wild oat (Avena fatua); settings: foliage application, AAH 320 g/ha, evaluated three weeks after application
In short: (§3)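 Plants were sown into sterilized diluvial soil under about 1.5 cm cover and kept in a greenhouse at 25° C. to 30° C. Fourteen days on, foliage received an even spray of the diluted emulsion. Herbicidal or crop effect was judged three weeks afterwards.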

[14] = test system: blackgrass; experiment: Test Example 5: herbicidal effect by foliage application, plastic box (Table 20, symbol J); format: in vivo, blackgrass (Alopecurus myosuroides); settings: foliage application, AAH 320 g/ha, evaluated three weeks after application
In short: as §3

[15] = test system: Italian ryegrass; experiment: Test Example 5: herbicidal effect by foliage application, plastic box (Table 20, symbol K); format: in vivo, Italian ryegrass (Lolium multiflorum); settings: foliage application, AAH 320 g/ha, evaluated three weeks after application
In short: as §3

[16] = test system: windgrass; experiment: Test Example 5: herbicidal effect by foliage application, plastic box (Table 20, symbol L); format: in vivo, windgrass (Apera spica-venti); settings: foliage application, AAH 320 g/ha, evaluated three weeks after application
In short: as §3

[17] = test system: lambsquarters; experiment: Test Example 5: herbicidal effect by foliage application, plastic box (Table 20, symbol O); format: in vivo, lambsquarters (Chenopodium album); settings: foliage application, AAH 320 g/ha, evaluated three weeks after application
In short: as §3

C#CCSCc1ccc(-c2sc3ccc(F)cc3c2-c2c(O)c(C)nn(C)c2=O)cc1 [2-325]
Herbicidal effect on B: Japanese bulrush (grade 0-5) [1]: 2 (Herbicidal rate of 20% or more and less than 40%) | herbicidal effect rating, A: late watergrass [2]: 2 (Herbicidal rate of 20% or more and less than 40%) | herbicidal effect on H: barnyard grass [3]: 5 (Herbicidal rate of 90% or more (almost completely withered)) | herbicidal effect on D: Chinese sprangletop [4]: 3 (Herbicidal rate of 40% or more and less than 70%) | herbicidal effect on F: southern crabgrass [5]: 0 (Herbicidal rate of 5% or less (almost no effect)) | herbicidal effect on G: green foxtail [6]: 2 (Herbicidal rate of 20% or more and less than 40%) | herbicidal effect on H: barnyard grass [7]: 3 (Herbicidal rate of 40% or more and less than 70%) | herbicidal effect on J: blackgrass [8]: 0 (Herbicidal rate of 5% or less (almost no effect)) | herbicidal effect on M: velvetleaf [9]: 0 (Herbicidal rate of 5% or less (almost no effect)) | herbicidal effect on N: redroot pigweed [10]: 4 (Herbicidal rate of 70% or more and less than 90%) | herbicidal effect on O: lambsquarters [11]: 4 (Herbicidal rate of 70% or more and less than 90%) | herbicidal effect on P: chickweed [12]: 0 (Herbicidal rate of 5% or less (almost no effect)) | I: wild oat, herbicidal effect (criteria 0-5) [13]: 4 (Herbicidal rate of 70% or more and less than 90%) | J: blackgrass, herbicidal effect (criteria 0-5) [14]: 4 (Herbicidal rate of 70% or more and less than 90%) | K: Italian ryegrass, herbicidal effect (criteria 0-5) [15]: 4 (Herbicidal rate of 70% or more and less than 90%) | L: windgrass, herbicidal effect (criteria 0-5) [16]: 5 (Herbicidal rate of 90% or more (almost completely withered)) | O: lambsquarters, herbicidal effect (criteria 0-5) [17]: 5 (Herbicidal rate of 90% or more (almost completely withered))

Cc1nn(C)c(=O)c(-c2c(-c3ccc(CSCC(F)(F)F)cc3)sc3ccc(F)cc23)c1O [2-331]
Herbicidal effect on B: Japanese bulrush (grade 0-5) [1]: 3 (Herbicidal rate of 40% or more and less than 70%) | herbicidal effect rating, A: late watergrass [2]: 3 (Herbicidal rate of 40% or more and less than 70%) | herbicidal effect on H: barnyard grass [3]: 5 (Herbicidal rate of 90% or more (almost completely withered)) | herbicidal effect on D: Chinese sprangletop [4]: 0 (Herbicidal rate of 5% or less (almost no effect)) | herbicidal effect on F: southern crabgrass [5]: 3 (Herbicidal rate of 40% or more and less than 70%) | herbicidal effect on G: green foxtail [6]: 4 (Herbicidal rate of 70% or more and less than 90%) | herbicidal effect on H: barnyard grass [7]: 3 (Herbicidal rate of 40% or more and less than 70%) | herbicidal effect on J: blackgrass [8]: 0 (Herbicidal rate of 5% or less (almost no effect)) | herbicidal effect on M: velvetleaf [9]: 2 (Herbicidal rate of 20% or more and less than 40%) | herbicidal effect on N: redroot pigweed [10]: 5 (Herbicidal rate of 90% or more (almost completely withered)) | herbicidal effect on O: lambsquarters [11]: 4 (Herbicidal rate of 70% or more and less than 90%) | herbicidal effect on P: chickweed [12]: 0 (Herbicidal rate of 5% or less (almost no effect)) | I: wild oat, herbicidal effect (criteria 0-5) [13]: 3 (Herbicidal rate of 40% or more and less than 70%) | J: blackgrass, herbicidal effect (criteria 0-5) [14]: 4 (Herbicidal rate of 70% or more and less than 90%) | K: Italian ryegrass, herbicidal effect (criteria 0-5) [15]: 4 (Herbicidal rate of 70% or more and less than 90%) | L: windgrass, herbicidal effect (criteria 0-5) [16]: 4 (Herbicidal rate of 70% or more and less than 90%) | O: lambsquarters, herbicidal effect (criteria 0-5) [17]: 5 (Herbicidal rate of 90% or more (almost completely withered))

Cc1nn(C)c(=O)c(-c2c(-c3ccc(C#N)cc3)sc3ccc(F)cc23)c1O [2-340]
Herbicidal effect on B: Japanese bulrush (grade 0-5) [1]: 5 (Herbicidal rate of 90% or more (almost completely withered)) | herbicidal effect rating, A: late watergrass [2]: 5 (Herbicidal rate of 90% or more (almost completely withered)) | herbicidal effect on H: barnyard grass [3]: 5 (Herbicidal rate of 90% or more (almost completely withered)) | herbicidal effect on D: Chinese sprangletop [4]: 5 (Herbicidal rate of 90% or more (almost completely withered)) | herbicidal effect on F: southern crabgrass [5]: 5 (Herbicidal rate of 90% or more (almost completely withered)) | herbicidal effect on G: green foxtail [6]: 5 (Herbicidal rate of 90% or more (almost completely withered)) | herbicidal effect on H: barnyard grass [7]: 5 (Herbicidal rate of 90% or more (almost completely withered)) | herbicidal effect on J: blackgrass [8]: 3 (Herbicidal rate of 40% or more and less than 70%) | herbicidal effect on M: velvetleaf [9]: 5 (Herbicidal rate of 90% or more (almost completely withered)) | herbicidal effect on N: redroot pigweed [10]: 5 (Herbicidal rate of 90% or more (almost completely withered)) | herbicidal effect on O: lambsquarters [11]: 5 (Herbicidal rate of 90% or more (almost completely withered)) | herbicidal effect on P: chickweed [12]: 5 (Herbicidal rate of 90% or more (almost completely withered)) | I: wild oat, herbicidal effect (criteria 0-5) [13]: 5 (Herbicidal rate of 90% or more (almost completely withered)) | J: blackgrass, herbicidal effect (criteria 0-5) [14]: 5 (Herbicidal rate of 90% or more (almost completely withered)) | K: Italian ryegrass, herbicidal effect (criteria 0-5) [15]: 5 (Herbicidal rate of 90% or more (almost completely withered)) | L: windgrass, herbicidal effect (criteria 0-5) [16]: 4 (Herbicidal rate of 70% or more and less than 90%) | O: lambsquarters, herbicidal effect (criteria 0-5) [17]: 5 (Herbicidal rate of 90% or more (almost completely withered))

CCCC(=O)Oc1c(C)nn(C)c(=O)c1-c1c(-c2ccc(F)c(F)c2)sc2ccc(F)cc12 [2-345]
Herbicidal effect on B: Japanese bulrush (grade 0-5) [1]: 4 (Herbicidal rate of 70% or more and less than 90%) | herbicidal effect rating, A: late watergrass [2]: 5 (Herbicidal rate of 90% or more (almost completely withered)) | herbicidal effect on H: barnyard grass [3]: 5 (Herbicidal rate of 90% or more (almost completely withered)) | herbicidal effect on D: Chinese sprangletop [4]: 5 (Herbicidal rate of 90% or more (almost completely withered)) | herbicidal effect on F: southern crabgrass [5]: 3 (Herbicidal rate of 40% or more and less than 70%) | herbicidal effect on G: green foxtail [6]: 5 (Herbicidal rate of 90% or more (almost completely withered)) | herbicidal effect on H: barnyard grass [7]: 4 (Herbicidal rate of 70% or more and less than 90%) | herbicidal effect on J: blackgrass [8]: 0 (Herbicidal rate of 5% or less (almost no effect)) | herbicidal effect on M: velvetleaf [9]: 3 (Herbicidal rate of 40% or more and less than 70%) | herbicidal effect on N: redroot pigweed [10]: 5 (Herbicidal rate of 90% or more (almost completely withered)) | herbicidal effect on O: lambsquarters [11]: 4 (Herbicidal rate of 70% or more and less than 90%) | herbicidal effect on P: chickweed [12]: 3 (Herbicidal rate of 40% or more and less than 70%) | I: wild oat, herbicidal effect (criteria 0-5) [13]: 3 (Herbicidal rate of 40% or more and less than 70%) | J: blackgrass, herbicidal effect (criteria 0-5) [14]: 0 (Herbicidal rate of 5% or less (almost no effect)) | K: Italian ryegrass, herbicidal effect (criteria 0-5) [15]: 3 (Herbicidal rate of 40% or more and less than 70%) | L: windgrass, herbicidal effect (criteria 0-5) [16]: 1 (Herbicidal rate of 5% or more and less than 20%) | O: lambsquarters, herbicidal effect (criteria 0-5) [17]: 5 (Herbicidal rate of 90% or more (almost completely withered))

Cc1nn(C)c(=O)c(-c2c(-c3ccc(Cl)cc3F)sc3ccc(F)cc23)c1O [2-348]
Herbicidal effect on B: Japanese bulrush (grade 0-5) [1]: 3 (Herbicidal rate of 40% or more and less than 70%) | herbicidal effect rating, A: late watergrass [2]: 3 (Herbicidal rate of 40% or more and less than 70%) | herbicidal effect on H: barnyard grass [3]: 5 (Herbicidal rate of 90% or more (almost completely withered)) | herbicidal effect on D: Chinese sprangletop [4]: 5 (Herbicidal rate of 90% or more (almost completely withered)) | herbicidal effect on F: southern crabgrass [5]: 1 (Herbicidal rate of 5% or more and less than 20%) | herbicidal effect on G: green foxtail [6]: 4 (Herbicidal rate of 70% or more and less than 90%) | herbicidal effect on H: barnyard grass [7]: 3 (Herbicidal rate of 40% or more and less than 70%) | herbicidal effect on J: blackgrass [8]: 0 (Herbicidal rate of 5% or less (almost no effect)) | herbicidal effect on M: velvetleaf [9]: 1 (Herbicidal rate of 5% or more and less than 20%) | herbicidal effect on N: redroot pigweed [10]: 3 (Herbicidal rate of 40% or more and less than 70%) | herbicidal effect on O: lambsquarters [11]: 5 (Herbicidal rate of 90% or more (almost completely withered)) | herbicidal effect on P: chickweed [12]: 3 (Herbicidal rate of 40% or more and less than 70%) | I: wild oat, herbicidal effect (criteria 0-5) [13]: 5 (Herbicidal rate of 90% or more (almost completely withered)) | J: blackgrass, herbicidal effect (criteria 0-5) [14]: 4 (Herbicidal rate of 70% or more and less than 90%) | K: Italian ryegrass, herbicidal effect (criteria 0-5) [15]: 4 (Herbicidal rate of 70% or more and less than 90%) | L: windgrass, herbicidal effect (criteria 0-5) [16]: 5 (Herbicidal rate of 90% or more (almost completely withered)) | O: lambsquarters, herbicidal effect (criteria 0-5) [17]: 5 (Herbicidal rate of 90% or more (almost completely withered))
